# Reference: patent US9676793B2, “Co-crystals of 5-amino-2-oxothiazolo[4,5-d]pyrimidin-3(2H)-yl-5-hydroxymethyl tetrahydrofuran-3-yl acetate and methods for preparing and using the same” (Hoffmann-La Roche Inc., priority 2014, dated 2017)
# Where two headings read alike, the source gives them in different places. Marks after values point to notes of the source that are not given here.
# Key:
# [1] = Excipient compatibility assay (COMPASS), ternary mixtures; type: physicochemical; conditions: glutaric acid co-crystal ternary mixtures
# Experimental: Compatibility of the inventive co-crystals with pharmaceutically acceptable excipients was determined by the classic compatibility assay (COMPASS). According to this method, excipient compatibility was investigated by physically mixing the inventive glutaric acid co-crystals with a single pharmaceutical excipient so as to form a binary mixture or by physically mixing the inventive glutaric acid co-crystals with mixtures containing two or more excipients (ternary mixture). Each binary mixture contained 5% by weight of the Formula I compound, whereas the weight percent of the Formula I compound in a ternary mixture was 50%. The test mixtures were stored at 50° C. for 4 weeks or at a temperature of 40° C. and a relative humidity of 75% for 4 weeks.
# The inventive co-crystals are compatible with fillers and/or excipients commonly used in the manufacture of pharmaceutical compositions. Table 4 illustrates the results of a compatibility study using ternary mixtures of the inventive glutaric acid co-crystal of the Formula I compound. Table 5 illustrates the results for a similar study using ternary mixtures of the tosylate salt of the Formula I compound.
# Ternary mixtures comprising the inventive glutaric acid co-crystal or the tosylate salt of a Formula I compound contained the following excipients in proportions illustrated in Table 6 below.
# [2] = Solid state stability by UPLC; type: physicochemical
# Experimental: Solid state stability studies were performed by storing a test sample of the co-crystal at different temperatures and under conditions of different relative humidity for a period of one to three months. Stability was judged by Ultra performance liquid chromatography (UPLC) analysis of the test co-crystals. Percent degradation of API in a test sample of the co-crystal was calculated as follows: Co-crystals in accordance with the invention are fairly stable across the temperature range used in the study. […] Without ascribing to a particular theory, crystallinity may contribute to the stability of inventive co-crystals. Table 7 illustrates data from a stability of a Formula I glutaric acid co-crystal in accordance with the invention across a range of temperatures and in the presence of 75% relative humidity at 40° C. […] Further supporting the hypothesis that crystallinity contributes to increased stability was provided by comparing the amorphous form of the free base of a Formula I compound to the crystalline form of a Formula I compound as illustrated in Table 8.
# [3] = Solubility and solution stability in buffers by UPLC; type: physicochemical; conditions: thermodynamic from solid, read-out: solubility: free-base form of the Formula I compound present per milliliter of buffer solution
# Excerpt: Studies have shown that the co-crystals were soluble in water and buffered solvents.
# Unlike the tosylate salt, no genotoxic by-products are formed in solutions of the inventive co-crystals.
# [4] = Pharmacokinetic study after oral administration; type: in vivo, cynomolgus monkeys
# Excerpt: Studies were undertaken to compare the pharmacokinetics (PK) of the glutaric acid co-crystal to the PK of the tosylate salt of the Formula I compound. A 3% solution of Blanose 7LF PM without preservatives was used to formulate the glutaric acid co-crystal and tosylate salt. Results from a pharmacokinetic study in cynomolgus monkeys indicate that the plasma concentration of the glutaric acid co-crystal was greater than the corresponding tosylate salt following oral administration of each compound.
# In this study, each compound was administered orally at a dose of 10 mg/kg to cynomolgus monkeys. Following administration, blood was obtained from each test subject at 0 min, 60 min, 120 min and 180 minutes. After separating the plasma from whole blood an aliquot to each plasma sample was denature by the addition of 70% ethanol. The denatured protein was pelleted by centrifugation and the supernatant was collected and dried using a stream of dry nitrogen gas. The pellet thus obtained was re-constituted in water containing 0.1% formic acid and the re-constituted mixture was analyzed by UPLC using a HSS-T3 (high strength silica) column or an YMC TriartC-18 column. Gradient elution using a mixture of water containing 0.1% HCOOH (mobile phase-A) and acetonitrile containing 0.1% HCOOH (mobile phase-B) was employed for analysis of the pharmacokinetic (PK) samples.
# [5] = tested on: HBV; assay: microbe, parasite or virus in culture
# Experimental: Direct inhibition of viral replication was evaluated by monitoring the levels of secreted HBV DNA and the levels of HBV surface antigen (HBsAg) in cultures containing HBV infected HepaRG cells.
# After three days incubation, the combined medium was replaced with differentiation medium and the cells were maintained in the differentiation medium for an additional 2 to 4 weeks. The differentiation medium was renewed every 2 to 3 days throughout the incubation period. Differentiated HepaRG cells (HepaRGd) display hepatocyte-like cell islands surrounded by monolayer of biliary-like cells. Prior to HBV infection and compound treatment, HepaRGd cells were seeded into collagen I coated 96-well plates (Gibco, Cat# A11428-03) at 50,000 to 60,000 cells per well. Cells were allowed to recover their differentiated phenotype in 96-well plates for at least 1 week after plating prior to HBV infection.
# HBV inoculum was collected from HepG2.2.15 cultured cells, a cell line that supports HBV (genotype D, strain ayw) replication and virion secretion as disclosed in Sells M A., et al., PNAS, 84(4): 1005-1009. HepG2.2.15 cells were maintained in DMEM+GlutaMAX-I (Invitrogen) containing 1× Pen/Strep (Invitrogen), 10% FBS, and 0.25 mg/ml G-418 (Invitrogen) using hyperflasks (Corning) pre-coated with collagen I (BD Biosciences). Upon reaching confluency, HepG2.2.15 culture media was replaced with DMEM+GlutaMAX-I containing 1× Pen-Strep, 2.5% FBS, and 1% DMSO for 3 days and then replaced with DMEM+GlutaMAX-I containing 1× Pen-Strep and 1% DMSO. The 1% DMSO containing media was collected every 3 to 4 days over a two week period and HBV infectious virions and subviral particles were pelleted by ultracentrifugation through a 20% sucrose cushion in a Ti 45 Beckman rotor at 45,000 rpm for 3 hours at 4° C. The pellets were resuspended in WEM at a concentration of 10^8-10^9 genome equivalents (GE) per ml, determined by real time PCR as described below using a genotype D HBV containing plasmid DNA as an internal standard. To evaluate the infectivity of the inoculum, HepaRGd cells in 96-well plates were infected in differentiation medium containing 50 to 200 GE/cell and 4% PEG 8000 (PolyEthylene Glycol 8000, Sigma, Cat# P5413-500G) for 16 hr at 37° C. At the end of the infection, HBV inoculum was removed and cells were washed 3 times with differentiation medium. Differentiation medium was replenished every 2 to 3 days and HBV replication was monitored by measuring secreted HBV DNA, hepatitis B surface (HBsAg) and/or e (HBeAg) antigens.
# HBsAg was detected from 50 μL of HBV infected HepaRG supernatants using the HBsAg chemiluminescence immunoassay (CLIA) kit following instructions as recommended by the manufacturer (Autobio Diagnostics Co., Zhengzhou, China). HBV DNA was extracted from 50 μL of HBV infected HepaRGd supernatants using the MagNA Pure 96 DNA and Viral NA Small Volume Kit (Roche, Cat#05 467 497 001). […] All PCR reactions were performed using the ViiA7 Real Time PCR system (Life Technologies).
# Both direct and indirect inhibitory activity of HBV replication was measured. […] Aliquots of these reagents were added to independent wells of a 96-well culture plate containing HBV infected HepaRGd cells on day 4 post infection. The final concentration of DMSO in each well was 2%. The HepaRGd cells used in the inhibition study were maintained in differentiation media containing 2% DMSO.
# [6] = Hygroscopicity of co-crystals; type: physicochemical
# [7] = BCS classification of co-crystals (aqueous solubility); type: physicochemical; conditions: for BCS Class (Stahl et al): Table 10
# [8] = tested on: HBV infected HepaRGd cells; assay: Cell viability by CellTiter-Glo, direct treatment; type: cell-based
# [9] = 4 weeks/40° C./ambient conditions (closed container)
# [10] = solid, 1 month, 40° C./75% r.h.
# [11] = solid, 2 months, 40° C./75% r.h.
# [12] = read-out: EC50 against HBV DNA secretion, HBV infected HepaRG cell assay
compound,measurement,setting,value
"CC(=O)O[C@@H]1C[C@@H](CO)O[C@H]1n1c(=O)sc2cnc(N)nc21 [free base Formula I-crystalline, 5-amino-2-oxothiazolo[4,5-d]pyrimidin-3(2H)-yl-5-hydroxymethyl tetrahydrofuran-3-yl acetate]",% Area Formula I,[1]; 4 weeks at 40° C./75% RH,99.740 % area
same,% degradation,[1]; 4 weeks at 40° C./75% RH,−0.030%
same,Stability,[1]; 4 weeks at 40° C./75% RH,Fairly
same,% Area Formula I,[1]; 4 weeks at 50° C.,99.670 % area
same,% degradation,[1]; 4 weeks at 50° C.,0.040%
same,Stability,[1]; 4 weeks at 50° C.,Fairly
same,% Area Formula I,[1]; Reference 4 weeks at 2-8° C.,99.710 % area
same,% Area Formula I,[2]; 4 weeks/40° C./75% r.h.,99.56 % Area
same,% degradation,[2]; 4 weeks/40° C./75% r.h.,0.15%
same,stability grade,[2]; 4 weeks/40° C./75% r.h.,stable
same,% Area Formula I,[2]; [9],99.52 % Area
same,% degradation,[2]; [9],0.19%
same,stability grade,[2]; [9],(stable)
same,T0 % Area Formula I,"[2]; free base forms, T0",99.71 % Area
"CC(=O)O[C@@H]1C[C@@H](CO)O[C@H]1n1c(=O)sc2cnc(N)nc21 [glutaric acid co-crystal, 5-amino-3-(2′-O-acetyl-3′-deoxy-β-D-ribofuranosyl)-3H-thiazolo[4,5]pyrimidine-2-one]",% Area Formula I,"[2]; solid, 1 month, 2-8° C.",99.02 % Area
same,% degradation,"[2]; solid, 1 month, 2-8° C.",−0.08%
same,% Area Formula I,"[2]; solid, 1 month, 40° C.",99.05 % Area
same,% degradation,"[2]; solid, 1 month, 40° C.",−0.11%
same,% Area Formula I,[2]; [10],99.14 % Area
same,% degradation,[2]; [10],−0.2%
same,% Area Formula I,"[2]; solid, 1 month, 60° C.",99.01 % Area
same,% degradation,"[2]; solid, 1 month, 60° C.",−0.07%
same,% Area Formula I,"[2]; solid, 1 month, RT",98.9 % Area
same,% degradation,"[2]; solid, 1 month, RT",0.04%
same,% Area Formula I,"[2]; solid, 2 months, 2-8° C., reference for 2 month stability",99.32** % Area
same,% Area Formula I,"[2]; solid, 2 months, 40° C.",99.35 % Area
same,% degradation,"[2]; solid, 2 months, 40° C.",−0.04%
same,% Area Formula I,[2]; [11],99.34 % Area
same,% degradation,[2]; [11],−0.03%
same,% Area Formula I,"[2]; solid, 2 months, 60° C.",99.56 % Area
same,% degradation,"[2]; solid, 2 months, 60° C.",−0.25%
same,% Area Formula I,"[2]; solid, 2 months, RT",99.22 % Area
same,% degradation,"[2]; solid, 2 months, RT",−0.10%
same,T0 % Area Formula I,"[2]; solid, T0, reference for 1 month stability",98.94* % Area
same,solubility,"[3]; aqueous buffer, pH 4.0 buffer",~8 mg/mL
same,solubility,"[3]; buffer solution, aqueous buffer, pH 7.0 buffered solution",~22 mg/mL
same,solubility,"[3]; buffer solution, simulated gastric fluid, pH 1.0 buffered solution",> 60 mg/mL
same,plasma concentration of the de-acetylated form of the Formula I compound compared to tosylate salt,"[4]; cynomolgus monkeys, oral, 10 mg/kg",about two-fold
same,direct inhibition of HBV viral replication,[5]; cultured HepaRG cells,did not inhibit viral replication
"5-amino-3-(2′-O-acetyl-3′-deoxy-β-D-ribofuranosyl)-3H-thiazolo[4,5]pyrimidine-2-one [glutaric acid co-crystal]",Hygroscopicity,[6]; grade in words,slightly
same,Hygroscopicity,[6]; mass change ±,(±0.3%-m/m)
same,BCS Class,[7]; Table 1,1
same,BCS Class (Stahl et al),[7],1
"IP-10: IFNγ-induced protein 10, chemokine",EC50,"[5]; read-out: EC50, HBV replication inhibitory effect, highest concentration tested",> 115000 pM
same,CC50,[8],> 115000 pM
O=C(O)CCC(=O)C(=O)O [α-ketoglutaric acid],Hygroscopicity,[6]; grade in words,slightly
same,Hygroscopicity,[6]; mass change ±,(±0.8%-m/m)
same,BCS Class (Stahl et al),[7],1
Nc1ccccc1C(=O)O [2-aminobenzoic acid],Hygroscopicity,[6]; grade in words,slightly
same,Hygroscopicity,[6]; mass change ±,(±1.8%-m/m)
"CC(=O)OC1CC(CO)OC1n1c(=O)sc2cnc(N)nc21.Cc1ccc(S(=O)(=O)O)cc1 (stereo not shown) [Tosylate Salt, 5-amino-2-oxothiazolo[4,5-d]pyrimidin-3(2H)-yl-5-hydroxymethyl tetrahydrofuran-3-yl acetate]",levels of the de-acetylated form of the Formula I compound and biologically active species in plasma,"[4]; monkeys, oral dose of 10 mg/kg, compared with glutaric acid co-crystal",lower levels
Fumaric acid,Hygroscopicity,[6]; grade in words,slightly
same,Hygroscopicity,[6]; mass change ±,(±0.6%-m/m)
"CC(=O)O[C@@H]1C[C@@H](CO)O[C@H]1n1c(=O)sc2cnc(N)nc21 [free base Formula I-amorphous, 5-amino-2-oxothiazolo[4,5-d]pyrimidin-3(2H)-yl-5-hydroxymethyl tetrahydrofuran-3-yl acetate]",% Area Formula I,[2]; 4 weeks/40° C./75% r.h.,86.34 % Area
same,% degradation,[2]; 4 weeks/40° C./75% r.h.,13.57%
same,stability grade,[2]; 4 weeks/40° C./75% r.h.,very
same,% Area Formula I,[2]; [9],98.89 % Area
same,% degradation,[2]; [9],1.011%
same,stability grade,[2]; [9],(moderately
same,T0 % Area Formula I,"[2]; free base forms, T0",99.90 % Area
TNF-α,EC50,[5]; [12],85 ± 46 pM
same,EC50,"[5]; read-out: EC50 against HBsAg secretion, HBV infected HepaRG cell assay, unit inferred",320 pM
"IL-6: interleukin 6, cytokine",EC50,[5]; [12],27 ± 7.3 pM
same,EC50,"[5]; read-out: EC50 against secretion of HBsAg, HBV infected HepaRG cell assay",260 ± 20 pM
